Values after ≈ are worked out from the molar mass of the structure shown.
Assays:
[1] = molecular target: T1, Somatostatin receptor type 5 (Homo sapiens, UniProt P35346); assay: Displacement of [125I]11-Tyr somatostatin-14 from human SST5R expressed in CHO cells; assay type: cell-based
[2] = molecular target: Voltage-gated inwardly rectifying potassium channel KCNH2 (Homo sapiens, UniProt Q12809); assay: Inhibition of hERG channel; assay type: toxicity
Histamine H1 receptor = Histamine H1 receptor (Homo sapiens, UniProt P35367); assay: Binding affinity to histamine H1 receptor
Histamine H1 receptor, sequence (P35367 whole entry): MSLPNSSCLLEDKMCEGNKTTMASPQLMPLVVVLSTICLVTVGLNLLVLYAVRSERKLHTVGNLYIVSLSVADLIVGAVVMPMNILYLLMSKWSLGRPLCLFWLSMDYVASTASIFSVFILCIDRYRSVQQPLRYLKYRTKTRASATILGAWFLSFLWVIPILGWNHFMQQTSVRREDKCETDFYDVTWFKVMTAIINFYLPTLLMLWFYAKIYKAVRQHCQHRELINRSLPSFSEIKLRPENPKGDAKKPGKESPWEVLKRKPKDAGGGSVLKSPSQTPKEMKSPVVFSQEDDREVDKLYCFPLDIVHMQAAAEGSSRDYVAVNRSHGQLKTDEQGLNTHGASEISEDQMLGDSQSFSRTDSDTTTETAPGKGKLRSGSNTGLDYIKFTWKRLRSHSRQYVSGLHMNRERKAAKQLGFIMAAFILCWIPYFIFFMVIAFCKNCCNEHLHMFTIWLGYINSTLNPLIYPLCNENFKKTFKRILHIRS

[3] = molecular target: T1, Somatostatin receptor type 5; assay: Antagonist activity at human SST5R expressed in CHO cells assessed as reversal of somatostatin-14 induced cAMP response; assay type: functional, cell-based
[4] = Solubility at pH 6.5 by lyophilisation solubility assay; assay type: physicochemical; conditions: buffer
[5] = Passive membrane permeability by PAMPA; assay type: ADME; conditions: read-out: permeability
[6] = Distribution coefficient, log D at pH 7.4; assay type: physicochemical; conditions: octanol/water
[7] = molecular target: Somatostatin receptor type 3 (Homo sapiens, UniProt P32745); assay: Binding affinity to human SST3R
Somatostatin receptor type 3, sequence (P32745 whole entry): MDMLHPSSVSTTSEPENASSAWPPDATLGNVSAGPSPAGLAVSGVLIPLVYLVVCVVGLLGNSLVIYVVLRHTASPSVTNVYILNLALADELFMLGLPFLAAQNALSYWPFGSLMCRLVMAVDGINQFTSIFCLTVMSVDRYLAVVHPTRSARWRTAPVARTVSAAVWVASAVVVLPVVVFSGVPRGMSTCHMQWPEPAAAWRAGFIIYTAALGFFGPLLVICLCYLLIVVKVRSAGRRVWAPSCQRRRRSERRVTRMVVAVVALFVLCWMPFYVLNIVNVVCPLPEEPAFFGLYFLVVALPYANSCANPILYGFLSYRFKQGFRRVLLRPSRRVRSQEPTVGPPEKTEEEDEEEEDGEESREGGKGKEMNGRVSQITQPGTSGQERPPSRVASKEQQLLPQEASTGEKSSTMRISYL

[8] = molecular target: Somatostatin receptor type 1 (Homo sapiens, UniProt P30872); assay: Binding affinity to human SST1R
Somatostatin receptor type 1, sequence (P30872 whole entry): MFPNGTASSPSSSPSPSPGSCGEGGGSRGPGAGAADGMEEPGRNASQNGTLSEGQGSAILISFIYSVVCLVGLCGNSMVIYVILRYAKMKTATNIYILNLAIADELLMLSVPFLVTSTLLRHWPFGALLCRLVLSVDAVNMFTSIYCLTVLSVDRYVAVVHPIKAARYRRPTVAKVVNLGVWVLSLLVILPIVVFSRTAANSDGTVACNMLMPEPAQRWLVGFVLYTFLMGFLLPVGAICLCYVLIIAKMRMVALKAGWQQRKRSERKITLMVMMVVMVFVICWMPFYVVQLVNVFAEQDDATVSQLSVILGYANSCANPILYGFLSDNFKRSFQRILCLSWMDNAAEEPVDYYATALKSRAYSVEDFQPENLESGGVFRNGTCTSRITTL

[9] = molecular target: Somatostatin receptor type 2 (Homo sapiens, UniProt P30874); assay: Binding affinity to human SST2R
Somatostatin receptor type 2, sequence (P30874 whole entry): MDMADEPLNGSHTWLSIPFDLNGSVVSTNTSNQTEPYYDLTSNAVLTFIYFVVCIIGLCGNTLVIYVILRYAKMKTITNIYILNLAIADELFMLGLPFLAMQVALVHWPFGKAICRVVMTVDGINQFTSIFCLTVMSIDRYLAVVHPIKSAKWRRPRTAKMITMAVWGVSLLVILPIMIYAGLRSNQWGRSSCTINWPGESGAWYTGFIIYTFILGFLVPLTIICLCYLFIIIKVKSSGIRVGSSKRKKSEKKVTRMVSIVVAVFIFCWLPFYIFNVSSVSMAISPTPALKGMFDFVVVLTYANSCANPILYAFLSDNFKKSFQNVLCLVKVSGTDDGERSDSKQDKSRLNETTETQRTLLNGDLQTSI

[10] = molecular target: Somatostatin receptor type 4 (Homo sapiens, UniProt P31391); assay: Binding affinity to human SST4R
Somatostatin receptor type 4, sequence (P31391 whole entry): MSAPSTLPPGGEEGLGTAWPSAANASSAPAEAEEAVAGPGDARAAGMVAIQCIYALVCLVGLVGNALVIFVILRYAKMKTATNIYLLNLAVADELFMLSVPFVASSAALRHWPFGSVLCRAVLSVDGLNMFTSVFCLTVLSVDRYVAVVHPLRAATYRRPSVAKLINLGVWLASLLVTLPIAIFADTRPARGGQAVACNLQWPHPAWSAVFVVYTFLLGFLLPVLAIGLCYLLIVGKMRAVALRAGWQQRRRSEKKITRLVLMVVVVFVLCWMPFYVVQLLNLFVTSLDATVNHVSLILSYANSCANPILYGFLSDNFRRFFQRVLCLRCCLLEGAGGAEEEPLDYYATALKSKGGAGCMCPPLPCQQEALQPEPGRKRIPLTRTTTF

T1 sequence (P35346 whole entry): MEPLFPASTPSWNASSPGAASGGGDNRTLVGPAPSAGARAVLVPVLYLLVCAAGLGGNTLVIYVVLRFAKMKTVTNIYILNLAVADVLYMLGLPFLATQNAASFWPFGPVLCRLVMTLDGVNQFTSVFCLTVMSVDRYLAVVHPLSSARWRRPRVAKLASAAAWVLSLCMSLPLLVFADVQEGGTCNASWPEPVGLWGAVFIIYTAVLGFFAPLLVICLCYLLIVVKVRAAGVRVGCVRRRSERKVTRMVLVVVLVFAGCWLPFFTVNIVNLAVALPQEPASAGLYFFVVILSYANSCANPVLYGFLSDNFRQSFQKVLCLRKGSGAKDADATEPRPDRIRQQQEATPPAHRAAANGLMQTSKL
Voltage-gated inwardly rectifying potassium channel KCNH2, sequence (Q12809 whole entry): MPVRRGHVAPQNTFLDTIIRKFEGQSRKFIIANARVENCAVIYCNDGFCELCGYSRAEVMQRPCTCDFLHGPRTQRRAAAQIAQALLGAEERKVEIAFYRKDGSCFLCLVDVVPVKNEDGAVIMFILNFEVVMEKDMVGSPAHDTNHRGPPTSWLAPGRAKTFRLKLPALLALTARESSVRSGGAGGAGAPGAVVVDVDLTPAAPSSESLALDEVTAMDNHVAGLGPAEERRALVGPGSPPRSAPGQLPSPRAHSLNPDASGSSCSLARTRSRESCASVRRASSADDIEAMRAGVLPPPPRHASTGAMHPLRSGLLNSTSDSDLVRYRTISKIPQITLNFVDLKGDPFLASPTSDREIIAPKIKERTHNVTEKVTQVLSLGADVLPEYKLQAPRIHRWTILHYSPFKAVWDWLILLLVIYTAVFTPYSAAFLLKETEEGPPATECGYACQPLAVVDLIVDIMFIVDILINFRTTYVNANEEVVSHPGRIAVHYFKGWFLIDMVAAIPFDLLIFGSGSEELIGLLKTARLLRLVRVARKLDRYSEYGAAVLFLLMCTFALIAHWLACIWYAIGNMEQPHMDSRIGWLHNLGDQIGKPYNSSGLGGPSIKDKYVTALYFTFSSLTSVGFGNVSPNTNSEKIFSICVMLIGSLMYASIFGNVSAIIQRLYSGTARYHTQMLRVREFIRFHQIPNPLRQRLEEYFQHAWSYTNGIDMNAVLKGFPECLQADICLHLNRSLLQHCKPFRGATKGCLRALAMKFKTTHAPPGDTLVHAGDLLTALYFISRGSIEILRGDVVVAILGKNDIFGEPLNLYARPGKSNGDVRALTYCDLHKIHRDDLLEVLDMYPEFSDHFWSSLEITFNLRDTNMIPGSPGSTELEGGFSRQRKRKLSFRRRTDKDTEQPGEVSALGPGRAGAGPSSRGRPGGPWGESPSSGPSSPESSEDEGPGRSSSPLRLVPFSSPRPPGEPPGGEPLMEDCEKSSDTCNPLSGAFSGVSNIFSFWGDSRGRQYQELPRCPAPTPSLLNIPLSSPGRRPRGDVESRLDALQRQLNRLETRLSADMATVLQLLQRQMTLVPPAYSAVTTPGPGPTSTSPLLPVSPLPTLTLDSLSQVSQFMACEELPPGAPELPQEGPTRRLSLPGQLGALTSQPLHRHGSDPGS

Structure (SMILES)	Ki [1] [nM]	other results
CCOc1cc(CN2CCC(Nc3nc4ccccc4o3)CC2)ccc1OC	121	IC50 [2]: < 100 nM; Ki (Histamine H1 receptor): 624 nM; IC50 [3]: 740 nM; solubility [4]: 130 µg/mL (≈ 341 µM); Papp [5]: 4.44 ×10⁻⁶ cm/s; logD [6]: 2.92
COc1ccc(CN2CCC(Nc3nc4ccccc4o3)CC2)cc1OCC(C)C	23	
Fc1ccc(CCN2CCC(Nc3nc4ccccc4n3Cc3ccc(F)cc3)CC2)cc1	> 10000	
Fc1ccc(Cn2c(NC3CCN(CC4CCc5ccccc5C4)CC3)nc3ccccc32)cc1 (stereo unspecified)	> 10000	
Fc1ccc(Cn2c(NC3CCN(CCCc4ccccc4)CC3)nc3ccccc32)cc1	> 10000	
CCOc1cc(CN2CCC(Nc3nc4ccccc4o3)CC2)ccc1Cl	113	
CCOc1cc(CN2CCC(Nc3nc4ccccc4o3)CC2)ccc1C	37	
CCOc1cc(CN2CCC(Nc3nc4ccccc4o3)CC2)ccc1OC(F)(F)F	524	
Fc1ccc(Cn2c(NC3CCN(Cc4ccccc4)CC3)nc3ccccc32)cc1	6120	
Fc1ccc(Cn2c(NC3CCN(Cc4ccc5c(c4)CCO5)CC3)nc3ccccc32)cc1	1630	
Fc1ccc(Cn2c(NC3CCN(Cc4ccc5[nH]ccc5c4)CC3)nc3ccccc32)cc1	3950	
CCOc1cc(CN2CCC(Nc3nc4cc(S(N)(=O)=O)ccc4o3)CC2)cc(OCC)c1N	13	Ki [7]: > 10000 nM; Ki [8]: > 10000 nM; Ki [9]: > 10000 nM; Ki [10]: > 10000 nM
CCOc1cc(CN2CCC(Nc3nc4ccccc4o3)CC2)ccc1O	66	
Cc1cccc2c(CN3CCC(Nc4nc5ccccc5n4Cc4ccc(F)cc4)CC3)c[nH]c12	1440	
COc1cc(CN2CCC(Nc3nc4ccccc4s3)CC2)c(OC)c2ccccc12	683	
COc1cc(CN2CCC(Nc3nc4ccccc4s3)CC2)ccc1O	5130	
CCOc1cc(CN2CCC(Nc3nc4ccccc4s3)CC2)ccc1O	149	
CCOc1cc(CN2CCC(Nc3nc4ccccc4s3)CC2)ccc1OC	326	
COc1cc(CN2CCC(Nc3nc4ccccc4o3)CC2)c(OC)c2ccccc12	794	
CCOc1cc(CN2CCC(Nc3nc4cc(S(N)(=O)=O)ccc4o3)CC2)ccc1Cl	17	
COc1ccc(CN2CCC(Nc3nc4ccccc4s3)CC2)cc1OC	1790	
CCCOc1cc(CN2CCC(Nc3nc4ccccc4o3)CC2)ccc1OC	293	
COc1ccc(CN2CCC(Nc3nc4ccccc4o3)CC2)cc1OC1CCCC1	83	
CCOc1cc(CN2CCC(Nc3nc4ccccc4o3)CC2)ccc1F	194	
COc1cc(CN2CCC(Nc3nc4ccccc4n3Cc3ccc(F)cc3)CC2)c(OC)c2ccccc12	1230	
CCOc1cc(CN2CCC(Nc3nc4cc(S(N)(=O)=O)ccc4o3)CC2)ccc1OC	185	IC50 [2]: 3500 nM
Fc1ccc(Cn2c(NC3CCN(CCc4ccc(OC(F)(F)F)cc4)CC3)nc3ccccc32)cc1	> 10000	
COc1ccc(CN2CCC(Nc3nc4ccccc4n3Cc3ccc(F)cc3)CC2)cc1	3950	
Fc1ccc(Cn2c(NC3CCN(CCc4ccccc4)CC3)nc3ccccc32)cc1	5000	
COc1ccc(CCN2CCC(Nc3nc4ccccc4n3Cc3ccc(F)cc3)CC2)cc1 [ASTEMIZOLE]	4070	

Source: ChEMBL document CHEMBL1138333, “Discovery of the first nonpeptidic, small-molecule, highly selective somatostatin receptor subtype 5 antagonists: a chemogenomics approach” (J Med Chem, 2007)
